The compounds below were run against T1, recombinant human AKR1C3 (Homo sapiens, UniProt P42330) (assay: AKR1C3-inhibitory activity assay (generation of Coumberol from Coumberone)). Details: Coumberone 0.3 μM, NADPH 10 μM, 22° C., typically 90 min, average or median values.
T1 construct: GST (cleaved yes); made in house; host or cells: E. coli
T1 sequence (P42330 1-323): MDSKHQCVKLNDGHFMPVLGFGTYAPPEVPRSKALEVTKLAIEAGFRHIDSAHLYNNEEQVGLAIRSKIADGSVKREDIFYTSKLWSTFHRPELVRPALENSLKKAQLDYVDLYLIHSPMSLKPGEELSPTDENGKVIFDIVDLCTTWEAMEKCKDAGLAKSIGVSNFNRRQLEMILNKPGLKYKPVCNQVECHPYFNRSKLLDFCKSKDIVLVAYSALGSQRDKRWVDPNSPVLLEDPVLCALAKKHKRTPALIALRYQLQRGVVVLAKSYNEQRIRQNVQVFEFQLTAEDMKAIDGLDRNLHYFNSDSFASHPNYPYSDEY
Format: biochemical
Procedure, shortened: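 Recombinant human AKR1C3 (E. coli GST fusion, GST removed; ~1 nM) preincubated 15 min with compound, then NADPH 10 μM and Coumberone 0.3 μM (final), 22 °C, typically 90 min, in 50 mM K-phosphate pH 7. Stopped with EM-1404 (1 μM final); Coumberol fluorescence read at 520 nm (ex 380 nm), normalized to no-inhibitor and no-enzyme controls.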
In the case of C[C@@H]1CN(C(=O)c2cnn[nH]2)[C@@H](C)CN1S(=O)(=O)c1cccc(S(C)(=O)=O)c1 [Example 81, [(2S,5R)-2,5-dimethyl-4-{[3-(methylsulfonyl)phenyl]sulfonyl}piperazin-1-yl](1H-1,2,3-triazol-5-yl)methanone], the IC50 is reported as 32 nM.
In the case of C[C@@H]1CN(C(=O)c2cnn[nH]2)[C@@H](C)CN1S(=O)(=O)c1ccc(F)c(F)c1 [Example 82, {(2S,5R)-4-[(3,4-difluorophenyl)sulfonyl]-2,5-dimethylpiperazin-1-yl}(1H-1,2,3-triazol-5-yl)methanone], the IC50 is reported as 2 nM.
Compound C[C@@H]1CN(C(=O)c2cnn[nH]2)[C@@H](C)CN1S(=O)(=O)c1cccc(C#N)c1 [Example 83, 3-{[(2R,5S)-2,5-dimethyl-4-(1H-1,2,3-triazol-5-ylcarbonyl)piperazin-1-yl]sulfonyl}benzonitrile] has an IC50 of 3 nM.
Work on C[C@@H]1CN(C(=O)c2cnn[nH]2)[C@@H](C)CN1S(=O)(=O)c1ccccc1S(C)(=O)=O [Example 84, [(2S,5R)-2,5-dimethyl-4-{[2-(methylsulfonyl)phenyl]sulfonyl}piperazin-1-yl](1H-1,2,3-triazol-5-yl)methanone] yielded an IC50 of 37 nM.
C[C@@H]1CN(C(=O)c2cnn[nH]2)[C@@H](C)CN1S(=O)(=O)c1cccc(OC(F)(F)F)c1 [Example 85, [(2S,5R)-2,5-dimethyl-4-{[3-(trifluoromethoxy)phenyl]sulfonyl}piperazin-1-yl](1H-1,2,3-triazol-5-yl)methanone] was tested, and the IC50 was 2 nM.
Compound C[C@@H]1CN(C(=O)c2cnn[nH]2)[C@@H](C)CN1S(=O)(=O)c1ccccc1-c1ccccc1 [Example 86, [(2S,5R)-4-(biphenyl-2-ylsulfonyl)-2,5-dimethylpiperazin-1-yl](1H-1,2,3-triazol-5-yl)methanone] has an IC50 of 32 nM.
COc1cccc(S(=O)(=O)N2C[C@H](C)N(C(=O)c3cnn[nH]3)C[C@H]2C)c1 [Example 87, {(2S,5R)-4-[(3-methoxyphenyl)sulfonyl]-2,5-dimethylpiperazin-1-yl}(1H-1,2,3-triazol-5-yl)methanone] gave an IC50 of 2 nM.
C[C@@H]1CN(C(=O)c2cnn[nH]2)[C@@H](C)CN1S(=O)(=O)Cc1c(F)cccc1F [Example 88, {(2S,5R)-4-[(2,6-difluorobenzyl)sulfonyl]-2,5-dimethylpiperazin-1-yl}(1H-1,2,3-triazol-5-yl)methanone] gave an IC50 of 79 nM.
In the case of C[C@@H]1CN(C(=O)c2cnn[nH]2)[C@@H](C)CN1S(=O)(=O)c1cc(Cl)ccc1C(F)(F)F [Example 89, [(2S,5R)-4-{[5-chloro-2-(trifluoromethyl)phenyl]sulfonyl}-2,5-dimethylpiperazin-1-yl](1H-1,2,3-triazol-5-yl)methanone], the IC50 is reported as 2 nM.
C[C@@H]1CN(C(=O)c2cnn[nH]2)[C@@H](C)CN1S(=O)(=O)c1cc(C(F)(F)F)cc(C(F)(F)F)c1 [Example 90, [(2S,5R)-4-{[3,5-bis(trifluoromethyl)phenyl]sulfonyl}-2,5-dimethylpiperazin-1-yl](1H-1,2,3-triazol-5-yl)methanone] showed an IC50 of 5 nM.
For C[C@@H]1CN(C(=O)c2cnn[nH]2)[C@@H](C)CN1S(=O)(=O)c1ccc(F)c(Cl)c1 [Example 91, {(2S,5R)-4-[(3-chloro-4-fluorophenyl)sulfonyl]-2,5-dimethylpiperazin-1-yl}(1H-1,2,3-triazol-5-yl)methanone], the IC50 was 1 nM.
Cc1cc(C)cc(S(=O)(=O)N2C[C@H](C)N(C(=O)c3cnn[nH]3)C[C@H]2C)c1 [Example 92, {(2S,5R)-4-[(3,5-dimethylphenyl)sulfonyl]-2,5-dimethylpiperazin-1-yl}(1H-1,2,3-triazol-5-yl)methanone] showed an IC50 of 1 nM.
Compound C[C@@H]1CN(S(=O)(=O)c2ccc(Br)cc2)C[C@H](C)N1C(=O)c1cnn[nH]1 [Example 93, {(2R,6S)-4-[(4-bromophenyl)sulfonyl]-2,6-dimethylpiperazin-1-yl}(1H-1,2,3-triazol-5-yl)methanone] has an IC50 of 30 nM.
With C[C@@H]1CN(S(=O)(=O)c2ccc(Cl)cc2)C[C@H](C)N1C(=O)c1cnn[nH]1 [Example 95, {(2R,6S)-4-[(4-chlorophenyl)sulfonyl]-2,6-dimethylpiperazin-1-yl}(1H-1,2,3-triazol-5-yl)methanone] the IC50 was 20 nM.
C[C@@H]1CN(S(=O)(=O)c2cccc3ccccc23)C[C@H](C)N1C(=O)c1cnn[nH]1 [Example 96, [(2R,6S)-2,6-dimethyl-4-(naphthalen-1-ylsulfonyl)piperazin-1-yl](1H-1,2,3-triazol-5-yl)methanone] showed an IC50 of 2 nM.
Work on COc1ccc(S(=O)(=O)N2C[C@@H](C)N(C(=O)c3cnn[nH]3)[C@@H](C)C2)cc1 [Example 97, {(2R,6S)-4-[(4-methoxyphenyl)sulfonyl]-2,6-dimethylpiperazin-1-yl}(1H-1,2,3-triazol-5-yl)methanone] yielded an IC50 of 151 nM.
In the case of C[C@@H]1CN(S(=O)(=O)c2cc(C(F)(F)F)cc(C(F)(F)F)c2)C[C@H](C)N1C(=O)c1cnn[nH]1 [Example 98, [(2R,6S)-4-{[3,5-bis(trifluoromethyl)phenyl]sulfonyl}-2,6-dimethylpiperazin-1-yl](1H-1,2,3-triazol-5-yl)methanone], the IC50 is reported as 56 nM.
For Cc1ccc(C)c(S(=O)(=O)N2C[C@@H](C)N(C(=O)c3cnn[nH]3)[C@@H](C)C2)c1 [Example 99, {(2R,6S)-4-[(2,5-dimethylphenyl)sulfonyl]-2,6-dimethylpiperazin-1-yl}(1H-1,2,3-triazol-5-yl)methanone], the IC50 was 3 nM.
Compound C[C@@H]1CN(S(=O)(=O)c2ccc(F)c(Cl)c2)C[C@H](C)N1C(=O)c1cnn[nH]1 [Example 100, {(2R,6S)-4-[(3-chloro-4-fluorophenyl)sulfonyl]-2,6-dimethylpiperazin-1-yl}(1H-1,2,3-triazol-5-yl)methanone] has an IC50 of 20 nM.
In the case of C[C@@H]1CN(S(=O)(=O)c2ccc(OC(F)(F)F)cc2)C[C@H](C)N1C(=O)c1cnn[nH]1 [Example 101, [(2R,6S)-2,6-dimethyl-4-{[4-(trifluoromethoxy)phenyl]sulfonyl}piperazin-1-yl](1H-1,2,3-triazol-5-yl)methanone], the IC50 is reported as 399 nM.
Compound C[C@@H]1CN(S(=O)(=O)c2ccccc2Br)C[C@H](C)N1C(=O)c1cnn[nH]1 [Example 102, {(2R,6S)-4-[(2-bromophenyl)sulfonyl]-2,6-dimethylpiperazin-1-yl}(1H-1,2,3-triazol-5-yl)methanone] has an IC50 of 1 nM.
Cc1c(Cl)cccc1S(=O)(=O)N1C[C@@H](C)N(C(=O)c2cnn[nH]2)[C@@H](C)C1 [Example 103, {(2R,6S)-4-[(3-chloro-2-methylphenyl)sulfonyl]-2,6-dimethylpiperazin-1-yl}(1H-1,2,3-triazol-5-yl)methanone] gave an IC50 of 2 nM.
For C[C@@H]1CN(S(=O)(=O)c2cccc(OC(F)(F)F)c2)C[C@H](C)N1C(=O)c1cnn[nH]1 [Example 106, [(2R,6S)-2,6-dimethyl-4-{[3-(trifluoromethoxy)phenyl]sulfonyl}piperazin-1-yl](1H-1,2,3-triazol-5-yl)methanone], the IC50 was 34 nM.
In the case of C[C@@H]1CN(S(=O)(=O)c2ccccc2-c2ccccc2)C[C@H](C)N1C(=O)c1cnn[nH]1 [Example 107, [(2R,6S)-4-(biphenyl-2-ylsulfonyl)-2,6-dimethylpiperazin-1-yl](1H-1,2,3-triazol-5-yl)methanone], the IC50 is reported as 245 nM.
